Data set [1] addresses T1, CBX8 Y39F (Homo sapiens, UniProt Q9HC52, Y39F).
T1 construct: 6His (N); TEV site (ENLYFQG), read by me from the printed insert DNA (N); host or cells: E. coli (BL21 CodonPlus RIL or Rosetta 2), pET-28a(+)
T1 sequence (Q9HC52 11-69 Y39F limits assumed): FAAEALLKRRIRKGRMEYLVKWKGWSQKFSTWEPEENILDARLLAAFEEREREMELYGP
The experiment in a line: Labeling of CBX8 Y39F mutant (gel shift, LC/MS). Format: binding. As to conditions: gel shift and LC/MS, 10 µM each, 37 °C. As for the experimental part: (§1) Observed masses are shown (expected average mass for CBX8 ChD = 8792 Da). The observed mass difference (913 Da) agrees with the expected mass change of 913 Da. b) Labeled protein was detected by gel shift on 16.5% Tris‐Tricine SDS‐PAGE. […] Gel analysis was conducted on a 2.5% agarose gel in 10 mM sodium borate buffer. […] Assays were conducted using SW2_113 as an FP probe (Figure S20) at 100 nM. All proteins were used at 2 µM in PBS (pH 7), 0.02% Tween 20. Error bars represent SD. […] (μM); no other compound label is printed beside the IC50 lines
(§2) We confirmed protein labeling through a gel shift assay on Tris‐Tricine SDS‐PAGE (Figure 5b). […] To validate labeling of the targeted tyrosine residue (Y39), this amino acid was mutated to phenylalanine. […] We additionally confirmed the labeling site as Y39 by trypsin digest and LC‐MS/MS analysis (Figure S9B).
(§3) For P2, 10 µM purified CBX ChD was incubated with P2 (10 µM) in PBS buffer (pH 7) at 37 °C or R.T. for 1.5 hours, as well as 12 hours overnight. Samples were precipitated using MeOH and CHCl3 at the volume ratio of MeOH:CHCl3:sample=3:0.5:1, washed twice using cold MeOH, and air dried. Dried protein pellets were resuspended in aqueous buffer (0.1% formic acid, 300 mM ammonium acetate), and protein labeling were characterized and quantitated by ESI LC-MS.
A general note: A gel shift assay detects complexes by their altered migration in electrophoresis.

The target of data set [2] is T2, CBX8 ChD (Homo sapiens, UniProt Q9HC52).
T2 construct: CBX chromodomain constructs (addgene plasmid #25158 (CBX2), and #62514 (CBX8, provided by Cheryl Arrowsmith)); 6His; host or cells: E. coli (BL21 CodonPlus RIL or Rosetta 2)
T2 sequence (Q9HC52 11-69 limits assumed): T1 sequence (Q9HC52 11-69 Y39F limits assumed) with F29Y
The experiment in a line: Time-dependent fluorescence polarization displacement assay, CBX8 ChD. The conditions noted are these: Figure 5d, CBX8 ChD 2 µM, PBS pH 7. Type of data set: binding. For orientation: Fluorescence polarisation rises when a labelled molecule tumbles more slowly, as on binding a larger partner.

Data set [3] deals with T3, CBX2 ChD (Homo sapiens, UniProt Q14781).
T3 construct: CBX chromodomain constructs (addgene plasmid #25158 (CBX2), and #62514 (CBX8, provided by Cheryl Arrowsmith)); 6His; host or cells: E. coli (BL21 CodonPlus RIL or Rosetta 2)
T3 sequence (Q14781 12-70 limits assumed): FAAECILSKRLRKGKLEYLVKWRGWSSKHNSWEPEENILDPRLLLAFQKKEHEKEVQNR
The experiment in a line: Time-dependent fluorescence polarization displacement assay, CBX2 ChD. Type of data set: binding. As to conditions: for IC50: Figure 5d, CBX2 ChD 2 µM, probe 100 nM. As to the method:
as §1
2.2 Fluorescence Displacement Assay to Evaluate Time-dependent potency of Imine Covalent Inhibitors to CBX ChD. Fluorescence polarization (FP) was measured by titration of CBX ChDs (CBX8 ChD/CBX8 ChD Y39F/CBX2 ChD) to a fluoresceine-labelled probe as previously reported ^1. Fluorescence displacement assays were performed in black 384-well plates with optical bottoms. Buffer used in FP assays consists of 100 mM Na2HPO4, 150 mM NaCl, 0.02% Tween 20. […] Two-fold dilutions of covalent inhibitors were used, starting with 100 µM as highest peptide concentration to 0.049 µM as the lowest. Four replicates were tested at each concentration. Fluorescence anisotropy was read at different time points. Raw data were analyzed using GraphPad Prism 7 following a “one site-Fit logIC50” competition model with any outliers (95 % confidence interval) being excluded.
Time-dependent fluorescence displacement assay Fluorescence polarization (FP) was measured by titration of CBX ChDs (CBX8 ChD/CBX8 ChD Y39F/CBX2 ChD) to a fluorescein-labelled probe as previously reported.^8 Fluorescence displacement assays were performed in black 384-well plates with optical bottoms. Buffer used in FP assays consists of 100 mM Na2HPO4, 150 mM NaCl, 0.02% Tween 20. […] Fluorescence anisotropy was read at different time points. […] Raw data were analyzed using GraphPad Prism 7 following a “one site-Fit logIC50” competition model with any outliers (95 % confidence interval) being excluded.

Data set [4] addresses T3, CBX2 ChD. Kind of data set: Labeling of CBX2 ChD (gel shift, MS). Type of data set: binding. As to conditions: gel shift or MS. As for the experimental part: as §1, §2, §3
Data set [5] can be described thus: Stability of warheads and inhibitors (solid, PBS, hydrolysis). As to conditions: 24 h in aqueous buffer, then sodium cyanoborohydride, mass spectrometry. Type of data set: physicochemical. As for the experimental part:
(§4) To be suitable for chemical probe and therapeutic applications, the warhead should show good stability. In general, we found the iminolactam warheads to be quite stable. Compound 1 was stable as a solid at room temperature for over 3 months. […] After 24‐h in aqueous buffer, compounds were treated with sodium cyanoborohydride. […] The synthetic strategy of in situ formation of imines by periodate treatment was pursued to avoid concerns of warhead reactivity with the ligand itself to either the peptide backbone or the phenoxyphenyl aryl group. This appears to have been unnecessary, at least for the iminolactam warhead. […] The more reactive ester imine may be forming semi‐stable cyclized products with the amide backbone, which have been observed previously with peptide aldehydes.^[ [51], [52] ^] Due to these issues, we selected compound P1b for further characterization.

The nature of data set [6]: Stability in bovine serum-containing cell media (LC/MS). Type of data set: in vitro ADME. The conditions noted are these: 20 µM, DMEM with 15% FBS, 24 h, 37 °C. As for the experimental part: as §4
Figure S17. Stability of cyclic imine inhibitors to serum-containing cell culture media. […] The protein fraction was then precipitated with addition of 2 volumes of 1:1 EtOH:acetonitrile and overnight incubation at -20 °C. Samples were centrifuged 16,000 g for 30 minutes. Supernatants were filtered through a 0.5 micro spin filter and evaporated with a speed vacuum. The compounds were resuspended in PBS and analzyed by LC/MS. […] Overlaid spectra of UV at 215 nm are shown and are representative of 3 replicates.

Positions count from the first letter of the chain named. Entries after “also recorded” stand apart in the source; their conditions may differ. Like-named read-outs stand apart in the source and are kept apart here.

The values below come from article PMC13053910, “Covalent Protein Inhibitors via Tyrosine and Tryptophan Conjugation with Cyclic Imine Mannich Electrophiles” (Angewandte Chemie (International Ed. in English), 2026).

As for `CC[C@H](C)[C@H](NC(=O)[C@@H](NC(=O)c1ccc(Oc2ccccc2)cc1)C1CCCC1)C(=O)N[C@@H](CCCCN(CC)CCCCCCN1CCN=CC1=O)C(=O)N[C@@H](CO)C(N)=O` [P1b], the “labeling of mutant CBX8 Y39F” value in data set [1] was “fails to label”. Moreover, the IC50 (in general, the concentration that inhibits the measured activity by half) was 9.9 µM in data set [2] (SW2_113 probe 100 nM, read-out: IC50 at time 0); 2 µM in data set [2] (IC50 at 20 h, probe 100 nM); 17 µM in data set [3] (read-out: IC50 at time 0); 15 µM in data set [3] (IC50 at 20 h). The “change in potency in time‐dependent FP assay” value in data set [3] (binding to CBX2) is reported as “no change in potency”. The “labeling of CBX2 ChD” value in data set [4] was “no labeled protein was detected”. Further, in data set [5], the “stability to long‐term incubation in PBS” value is recorded as “stability over the 24 h”. Further, the “stability in bovine serum‐containing cell media” value in data set [6] is on record as “no degradation or loss to the protein fraction; also recorded: minimal loss of compounds to the precipitated protein fraction or degradation”.
